Experimental findings from patent publication US20260085077A1, “HETEROCYCLIC DERIVATIVES AS JANUS KINASE INHIBITORS” (CHIESI FARMACEUTICI S.P.A., priority 2022, published 2026) are described below.

Structures are written as SMILES. pIC50: −log10 of the molar value. Some results are limits rather than exact numbers.

In the assay the test system is IL-13 induced pSTAT6 in BEAS-2B human cell line. In words: Inhibition of IL-13 induced pSTAT6 in BEAS. The format is cell-based. The note with it: IL-13 induced pSTAT6, BEAS-2B cells, ELISA. The method, then:
BEAS-2B human cell line was seeded (100.000 cells/well) and incubated for 48 h at 37° C., 5% CO2, 95% humidity. Compounds were added and incubated 30 min followed by IL-13 as trigger. After 30 min incubation, cells were lysed and pSTAT6 determined by Fastscan phospho-stat6 (Tyr641) sandwich ELISA kit (cell signaling). Inhibitors were tested at 11 consecutive […] dilutions starting from 10 μM (10 μM-40 pM) in duplicate. Calculation of IC50 data, curves and QC analysis were made using Excel tools and GraphPadPrism software. QC criteria parameters: Z′≥0.35, Hill Slope range 0.5 to 5, S:B>2.
`COc1cc2c(cc1-n1nc(NCCN(C)C)c3cnc(-c4cnn5cccnc45)cc31)OCCN2` [Example 54, N1-(1-(6-methoxy-3,4-dihydro-2H-benzo[b][1,4]oxazin-7-yl)-6-(pyrazolo[1,5-a]pyrimidin-3-yl)-1H-pyrazolo[4,3-c]pyridin-3-yl)-N2,N2-dimethylethane-1,2-diamine] had a pIC50 of 7.30 to 8.30.
`COc1cc2c(cc1-n1nc(C)c3cnc(-c4cnn5cccnc45)cc31)CCN2` [Example 41, 1-(6-methoxyindolin-5-yl)-3-methyl-6-(pyrazolo[1,5-a]pyrimidin-3-yl)-1H-pyrazolo[4,3-c]pyridine]: the negative-log IC50 (pIC50) was 7.30 to 8.30.
`CNc1nn(-c2cc3c(cc2OC)NC(=O)CC3)c2cc(-c3cnn4cccnc34)ncc12` [Example 26, 7-methoxy-6-(3-(methylamino)-6-(pyrazolo[1,5-a]pyrimidin-3-yl)-1H-pyrazolo[4,3-c]pyridin-1-yl)-3,4-dihydroquinolin-2(1H)-one] showed a pIC50 of 7.30 to 8.30.
Take `COc1cc2c(cc1-n1nc(NC(=O)OCCN3CCCCC3)c3cnc(-c4cnn5cccnc45)cc31)OCCN2` [Example 66, 2-(piperidin-1-yl)ethyl (1-(6-methoxy-3,4-dihydro-2H-benzo[b][1,4]oxazin-7-yl)-6-(pyrazolo[1,5-a]pyrimidin-3-yl)-1H-pyrazolo[4,3-c]pyridin-3-yl)carbamate]: the pIC50 was 7.30 to 8.30.
`COc1cc2c(cc1-n1nc(C(=O)NC3CN(C)C3)c3cnc(-c4cnn5cccnc45)cc31)SCCN2` [Example 17, 1-(6-methoxy-3,4-dihydro-2H-benzo[b][1,4]thiazin-7-yl)-N-(1-methylazetidin-3-yl)-6-(pyrazolo[1,5-a]pyrimidin-3-yl)-1H-pyrazolo[4,3-c]pyridine-3-carboxamide] gave a pIC50 of 7.30 to 8.30.
Consider `COc1cc2c(cc1-n1nc(NC(=O)OCCN3CCSCC3)c3cnc(-c4cnn5cccnc45)cc31)OCCN2` [Example 64, 2-thiomorpholinoethyl (1-(6-methoxy-3,4-dihydro-2H-benzo[b][1,4]oxazin-7-yl)-6-(pyrazolo[1,5-a]pyrimidin-3-yl)-1H-pyrazolo[4,3-c]pyridin-3-yl)carbamate], for which the pIC50 is 7.30 to 8.30.
As for `COc1cc2c(cc1-n1nc(C)c3cnc(-c4cnn5cccnc45)cc31)CN(C)C(=O)N2` [Example 12, 7-methoxy-3-methyl-6-(3-methyl-6-(pyrazolo[1,5-a]pyrimidin-3-yl)-1H-pyrazolo[4,3-c]pyridin-1-yl)-3,4-dihydroquinazolin-2(1H)-one], the negative-log IC50 (pIC50) was 6.30 to 7.30.
Next, `COc1cc2c(cc1-n1nc(NC(=O)O[C@@H]3CCN(C)C3)c3cnc(-c4cnn5cccnc45)cc31)SCCN2` [Example 32, (R)-1-methylpyrrolidin-3-yl (1-(6-methoxy-3,4-dihydro-2H-benzo[b][1,4]thiazin-7-yl)-6-(pyrazolo[1,5-a]pyrimidin-3-yl)-1H-pyrazolo[4,3-c]pyridin-3-yl)carbamate]: 7.30 to 8.30; `COc1cc2c(cc1-n1nc(NCCN(C)C)c3cnc(-c4cnn5cccnc45)cc31)SCC(=O)N2` [Example 38, 7-(3-((2-(dimethylamino)ethyl)amino)-6-(pyrazolo[1,5-a]pyrimidin-3-yl)-1H-pyrazolo[4,3-c]pyridin-1-yl)-6-methoxy-2H-benzo[b][1,4]thiazin-3(4H)-one]: 7.30 to 8.30; `COc1cc2c(cc1-n1nc(C)c3cnc(-c4cnn5cccnc45)cc31)CCCN2` [Example 42, 7-methoxy-6-(3-methyl-6-(pyrazolo[1,5-a]pyrimidin-3-yl)-1H-pyrazolo[4,3-c]pyridin-1-yl)-1,2,3,4-tetrahydroquinoline]: more than 8.30.
Regarding `COc1cc2c(cc1-n1nc(C(=O)NCCCN(C)C)c3cnc(-c4cnn5cccnc45)cc31)CCCN2` [Example 25, N-(3-(dimethylamino)propyl)-1-(7-methoxy-1,2,3,4-tetrahydroquinolin-6-yl)-6-(pyrazolo[1,5-a]pyrimidin-3-yl)-1H-pyrazolo[4,3-c]pyridine-3-carboxamide], the pIC50 is 7.30 to 8.30.
As for `COc1cc2c(cc1-n1nc(C)c3cnc(-c4cnn5cccnc45)cc31)SCC(=O)N2` [Example 7, 6-methoxy-7-(3-methyl-6-(pyrazolo[1,5-a]pyrimidin-3-yl)-1H-pyrazolo[4,3-c]pyridin-1-yl)-2H-benzo[b][1,4]thiazin-3(4H)-one], the pIC50 was 7.30 to 8.30.
Next, `COc1cc2c(cc1-n1nc(C)c3cnc(-c4cnn5cccnc45)cc31)CC(=O)N2` [Example 10, 6-methoxy-5-(3-methyl-6-(pyrazolo[1,5-a]pyrimidin-3-yl)-1H-pyrazolo[4,3-c]pyridin-1-yl)indolin-2-one]: 7.30 to 8.30; `COc1cc2c(cc1-n1nc(C(=O)NC[C@@H]3CN(C)CCO3)c3cnc(-c4cnn5cccnc45)cc31)OCCN2` [Example 45, (R)-1-(6-methoxy-3,4-dihydro-2H-benzo[b][1,4]oxazin-7-yl)-N-((4-methylmorpholin-2-yl)methyl)-6-(pyrazolo[1,5-a]pyrimidin-3-yl)-1H-pyrazolo[4,3-c]pyridine-3-carboxamide]: 7.30 to 8.30.
The molecule `COc1cc2c(cc1-n1nc(NC(=O)OCCCN3CCOCC3)c3cnc(-c4cnn5cccnc45)cc31)OCCN2` [Example 61, 3-morpholinopropyl (1-(6-methoxy-3,4-dihydro-2H-benzo[b][1,4]oxazin-7-yl)-6-(pyrazolo[1,5-a]pyrimidin-3-yl)-1H-pyrazolo[4,3-c]pyridin-3-yl)carbamate] had a pIC50 of 7.30 to 8.30.
On to `COc1cc2c(cc1-n1nc(C(=O)NCCN3CCC(C(N)=O)CC3)c3cnc(-c4cnn5cccnc45)cc31)OCCN2` [Example 79, N-(2-(4-carbamoylpiperidin-1-yl)ethyl)-1-(6-methoxy-3,4-dihydro-2H-benzo[b][1,4]oxazin-7-yl)-6-(pyrazolo[1,5-a]pyrimidin-3-yl)-1H-pyrazolo[4,3-c]pyridine-3-carboxamide], for which the pIC50 is 6.30 to 7.30.
Take `COc1cc2c(cc1-n1nc(C(=O)NCCCN(C)C)c3cnc(-c4cnn5cccnc45)cc31)SCCN2` [Example 16, N-(3-(dimethylamino)propyl)-1-(6-methoxy-3,4-dihydro-2H-benzo[b][1,4]thiazin-7-yl)-6-(pyrazolo[1,5-a]pyrimidin-3-yl)-1H-pyrazolo[4,3-c]pyridine-3-carboxamide]: the pIC50 is more than 8.30.
`COc1cc2c(cc1-n1nc(NC(=O)N(C)C)c3cnc(-c4cnn5cccnc45)cc31)SCCN2` [Example 36, 3-(1-(6-methoxy-3,4-dihydro-2H-benzo[b][1,4]thiazin-7-yl)-6-(pyrazolo[1,5-a]pyrimidin-3-yl)-1H-pyrazolo[4,3-c]pyridin-3-yl)-1,1-dimethylurea] had a pIC50 of more than 8.30.
In turn, `COc1cc2c(cc1-n1nc(NC(=O)OCCCN3CCOC(=O)C3)c3cnc(-c4cnn5cccnc45)cc31)SCCN2` [Example 19, 3-(2-oxomorpholino)propyl (1-(6-methoxy-3,4-dihydro-2H-benzo[b][1,4]thiazin-7-yl)-6-(pyrazolo[1,5-a]pyrimidin-3-yl)-1H-pyrazolo[4,3-c]pyridin-3-yl)carbamate] had a pIC50 of 7.30 to 8.30.
`COc1cc2c(cc1-n1nc(NC(=O)OC[C@@H]3CN(C)CCO3)c3cnc(-c4cnn5cccnc45)cc31)OCCN2` [Example 65, (S)-(4-methylmorpholin-2-yl)methyl (1-(6-methoxy-3,4-dihydro-2H-benzo[b][1,4]oxazin-7-yl)-6-(pyrazolo[1,5-a]pyrimidin-3-yl)-1H-pyrazolo[4,3-c]pyridin-3-yl)carbamate]: the pIC50 is 7.30 to 8.30.
Consider `COc1cc2c(cc1-n1nc(C(=O)NC[C@@H]3CN(C)CCO3)c3cnc(-c4cnn5cccnc45)cc31)SCCN2` [Example 18, (R)-1-(6-methoxy-3,4-dihydro-2H-benzo[b][1,4]thiazin-7-yl)-N-((4-methylmorpholin-2-yl)methyl)-6-(pyrazolo[1,5-a]pyrimidin-3-yl)-1H-pyrazolo[4,3-c]pyridine-3-carboxamide], for which the pIC50 was 7.30 to 8.30.
Next, `COc1cc2c(cc1-n1nc(C(=O)NCCCN(C)C)c3cnc(-c4cnc5cccnn45)cc31)OCCN2` [Example 73, N-(3-(dimethylamino)propyl)-6-(imidazo[1,2-b]pyridazin-3-yl)-1-(6-methoxy-3,4-dihydro-2H-benzo[b][1,4]oxazin-7-yl)-1H-pyrazolo[4,3-c]pyridine-3-carboxamide]: 7.30 to 8.30; `COc1cc2c(cc1-n1nc(NC(=O)OCCN3CCCCC3)c3cnc(-c4cnn5cccnc45)cc31)SCCN2` [Example 31, 2-(piperidin-1-yl)ethyl (1-(6-methoxy-3,4-dihydro-2H-benzo[b][1,4]thiazin-7-yl)-6-(pyrazolo[1,5-a]pyrimidin-3-yl)-1H-pyrazolo[4,3-c]pyridin-3-yl)carbamate]: 7.30 to 8.30; `COc1cc2c(cc1-n1nc(NC(=O)OCCN(C)C)c3cnc(-c4cnn5cccnc45)cc31)SCCN2` [Example 28, 2-(dimethylamino)ethyl (1-(6-methoxy-3,4-dihydro-2H-benzo[b][1,4]thiazin-7-yl)-6-(pyrazolo[1,5-a]pyrimidin-3-yl)-1H-pyrazolo[4,3-c]pyridin-3-yl)carbamate]: more than 8.30.
`COC(=O)Nc1nn(-c2cc3c(cc2OC)NCCO3)c2cc(-c3cnn4cccnc34)ncc12` [Example 56, methyl (1-(6-methoxy-3,4-dihydro-2H-benzo[b][1,4]oxazin-7-yl)-6-(pyrazolo[1,5-a]pyrimidin-3-yl)-1H-pyrazolo[4,3-c]pyridin-3-yl)carbamate] gave a pIC50 of 7.30 to 8.30.
For `COc1cc2c(cc1-n1nc(NC(=O)OCCN(C)C3CCOC3=O)c3cnc(-c4cnn5cccnc45)cc31)SCCN2` (centres unmarked) [Example 20, 2-(methyl(2-oxotetrahydrofuran-3-yl)amino)ethyl (1-(6-methoxy-3,4-dihydro-2H-benzo[b][1,4]thiazin-7-yl)-6-(pyrazolo[1,5-a]pyrimidin-3-yl)-1H-pyrazolo[4,3-c]pyridin-3-yl)carbamate] the value was 7.30 to 8.30.
